In patent US20150105252A1, “SUBSTITUTED PYRAZOLES AS HERBICIDES” (E I DU PONT DE NEMOURS AND COMPANY, priority 2013, published 2015):

Legend:
[1] = system: morningglory; experiment: Test E preemergence; format: in vivo, Ipomoea lacunosa; conditions: 21 days, scale 0 to 100
Excerpt: (§1) Seeds of plant species selected from bermudagrass (Cynodon dactylon), Surinam grass (Brachiaria decumbens), crabgrass, large (large crabgrass, Digitaria sanguinalis), crabgrass, naked (naked crabgrass, Digitaria nuda), foxtail, green (green foxtail, Setaria viridis), johnsongrass (Sorghum halepense), kochia (Kochia scoparia), morningglory (pitted morningglory, Ipomoea lacunosa), nutsedge, purple (purple nutsedge, Cyperus rotundus), ragweed (common ragweed, Ambrosia elation), mustard, black (black mustard, Brassica nigra), guineagrass (Panicum maximum), dallisgrass (Paspalum dilatatum), barnyardgrass (Echinochloa crus-galli), sandbur (southern sandbur, Cenchrus echinatus), sowthistle (common sowthistle, Sonchus oleraceous), ryegrass, Italian (Italian ryegrass, Lolium multiflorum), signalgrass (broadleaf signalgrass, Brachiaria platyphylla), dayflower, VA (Virginia (VA) dayflower, Commelina virginica), bluegrass (annual bluegrass, Poa annua), quackgrass (Elytrigia repens), mallow (common mallow, Malva sylvestris), buckwheat, wild (wild buckwheat, Polygonum convolvulus), leafy spurge (Euphorbia esula), common chickweed (Stellaria media), wild poinsettia (Euphorbia heterophylla), pigweed, palmer (palmer pigweed, Amaranthus palmeri), and pigweed (redroot pigweed, Amaranthus retroflexus) were planted into a blend of loam soil and sand and treated preemergence with test chemicals formulated in a non-phytotoxic solvent mixture which included a surfactant.
(§2) Treated plants and controls were maintained in a greenhouse for 21 days, after which time all species were compared to controls and visually evaluated. Plant response ratings, summarized in Table E, are based on a scale of 0 to 100 where 0 is no effect and 100 is complete control. A dash (-) response means no test result.

[2] = system: kochia; experiment: Test F postemergence; format: in vivo, Kochia scoparia; conditions: scale 0 to 100
Excerpt: (§3) Seeds of plant species selected from corn (Zea mays), soybean (Glycine max), velvetleaf (Abutilon theophrasti), lambsquarters (Chenopodium album), wild poinsettia (Euphorbia heterophylla), pigweed, palmer (palmer pigweed, Amaranthus palmeri), common waterhemp (Amaranthus rudis), surinam grass (Brachiaria decumbens), large crabgrass (Digitaria sanguinalis), crabgrass, Brazil (Brazilian crabgrass, Digitaria horizontalis), fall panicum (Panicum dichotomiflorum), giant foxtail (Setaria faberii), green foxtail (Setaria viridis), goosegrass (Eleusine indica), johnsongrass (Sorghum halepense), common ragweed (Ambrosia elation), barnyardgrass (Echinochloa crus-galli), southern sandbur (Cenchrus echinatus), arrowleaf sida (Sida rhombifolia), Italian ryegrass (Lolium multiflorum), dayflower, VA (Virginia (VA) dayflower, Commelina virginica), field bindweed (Convolvulus arvensis), cocklebur (common cocklebur, Xanthium strumarium), morningglory (Ipomoea coccinea), nightshade (eastern black nightshade, Solanum ptycanthum), kochia (Kochia scoparia), yellow nutsedge (Cyperus esculentus), and hairy beggarticks (Bidens pilosa), were planted into a silt loam soil and treated preemergence with test chemicals formulated in a non-phytotoxic solvent mixture which included a surfactant.
(§4) At the same time, plants from these crop and weed species and also horseweed (Canada horseweed, Conyza canadensis), smartweed (ladysthumb smartweed, Polygonum persicaria), waterhemp_RES1, (ALS & Triazine resistant common waterhemp, Amaranthus rudis), and waterhemp_RES2, (ALS & HPPD resistant common waterhemp, Amaranthus rudis) were treated with postemergence applications of test chemicals formulated in the same manner. Plants ranged in height from 2 to 18 cm for postemergence treatments (1- to 4-leaf stage). Treated plants and controls were maintained in a greenhouse for 14 to 21 days, after which time all species were compared to controls and visually evaluated. Plant response ratings, summarized in Table F, are based on a scale of 0 to 100 where 0 is no effect and 100 is complete control. A dash (-) response means no test result.

[3] = system: smartweed; experiment: Test F postemergence; format: in vivo, Polygonum persicaria; conditions: 500 g ai/ha, scale 0 to 100
Excerpt: as §3, §4

[4] = system: fall panicum; experiment: Test F postemergence; format: in vivo, Panicum dichotomiflorum; conditions: scale 0 to 100
Method in brief: (§5)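 Visual rating 0–100 vs untreated controls (0 = no effect, 100 = complete control) after 14–21 d greenhouse. Pre: seeds in silt loam soil. Post: plants 2–18 cm, 1–4 leaf. Formulation: non-phytotoxic solvent mix + surfactant.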

[5] = system: arrowleaf sida; experiment: Test F postemergence; format: in vivo, Sida rhombifolia; conditions: scale 0 to 100
Excerpt: as §3, §4

[6] = system: quackgrass; experiment: Test E preemergence; format: in vivo, Elytrigia repens; conditions: 21 days, scale 0 to 100
Excerpt: as §1, §2

[7] = system: nutsedge, purple; experiment: Test E preemergence; format: in vivo, Cyperus rotundus; conditions: 21 days, scale 0 to 100
Excerpt: as §1, §2

[8] = system: guineagrass; experiment: Test E preemergence; format: in vivo, Panicum maximum; conditions: 21 days, scale 0 to 100
Excerpt: as §1, §2

[9] = system: Italian ryegrass; experiment: Test F postemergence; format: in vivo, Lolium multiflorum; conditions: scale 0 to 100
Method in brief: as §5

## CCOc1cc(C(=O)NCC(F)(F)F)nn1Cc1ccnc(C(F)(F)F)c1 [Compound 104]
[1]; 16 g ai/ha
  Plant response rating, Morningglory: 98
[1]; 31 g ai/ha
  Plant response rating, Morningglory: 98
[1]; 62 g ai/ha
  Plant response rating, Morningglory: 100
[1]; 125 g ai/ha
  Plant response rating, Morningglory: 100
[1]; 250 g ai/ha
  Plant response rating, Morningglory: 100
[2]; Postemergence, 31 g ai/ha
  Plant response rating, Kochia: 75
[2]; Postemergence, 125 g ai/ha
  Plant response rating, Kochia: 90
[2]; Postemergence, 250 g ai/ha
  Plant response rating, Kochia: 95
[2]; postemergence, 62 g ai/ha
  Plant response rating, Kochia: 80
[2]; postemergence, 500 g ai/ha
  Plant response rating, Kochia: 95
[3]
  Plant response rating, Smartweed: 98
[4]; Postemergence, 31 g ai/ha
  Plant response rating, Fall Panicum: 10
[4]; Postemergence, 125 g ai/ha
  Plant response rating, Fall Panicum: 50
[4]; Postemergence, 250 g ai/ha
  Plant response rating, Fall Panicum: 80
[4]; postemergence, 62 g ai/ha
  Plant response rating, Fall Panicum: 40
[4]; postemergence, 500 g ai/ha
  Plant response rating, Fall Panicum: 90
[5]; Postemergence, 31 g ai/ha
  Plant response rating, Arrowleaf Sida: 55
[5]; Postemergence, 125 g ai/ha
  Plant response rating, Arrowleaf Sida: 70
[5]; Postemergence, 250 g ai/ha
  Plant response rating, Arrowleaf Sida: 80
[5]; postemergence, 62 g ai/ha
  Plant response rating, Arrowleaf Sida: 60
[5]; postemergence, 500 g ai/ha
  Plant response rating, Arrowleaf Sida: 95
[6]; 16 g ai/ha
  Plant response rating, Quackgrass: 75
[6]; 31 g ai/ha
  Plant response rating, Quackgrass: 95
[6]; 62 g ai/ha
  Plant response rating, Quackgrass: 95
[6]; 125 g ai/ha
  Plant response rating, Quackgrass: 98
[6]; 250 g ai/ha
  Plant response rating, Quackgrass: 100
[7]; 16 g ai/ha
  Plant response rating, Nutsedge, Purple: 35
[7]; 31 g ai/ha
  Plant response rating, Nutsedge, Purple: 80
[7]; 62 g ai/ha
  Plant response rating, Nutsedge, Purple: 90
[7]; 125 g ai/ha
  Plant response rating, Nutsedge, Purple: 98
[7]; 250 g ai/ha
  Plant response rating, Nutsedge, Purple: 100
[8]; 16 g ai/ha
  Plant response rating, Guineagrass: 100
[8]; 31 g ai/ha
  Plant response rating, Guineagrass: 100
[8]; 62 g ai/ha
  Plant response rating, Guineagrass: 100
[8]; 125 g ai/ha
  Plant response rating, Guineagrass: 100
[8]; 250 g ai/ha
  Plant response rating, Guineagrass: 100
[9]; Postemergence, 31 g ai/ha
  Plant response rating, Italian Ryegrass: 0
[9]; Postemergence, 125 g ai/ha
  Plant response rating, Italian Ryegrass: 35
[9]; Postemergence, 250 g ai/ha
  Plant response rating, Italian Ryegrass: 60
[9]; postemergence, 62 g ai/ha
  Plant response rating, Italian Ryegrass: 15
[9]; postemergence, 500 g ai/ha
  Plant response rating, Italian Ryegrass: 85

## CCCc1cc(C(=O)NCC(F)(F)F)nn1Cc1ccnc(C(F)(F)F)c1 [Compound 105]
[1]; 16 g ai/ha
  Plant response rating, Morningglory: 100
[1]; 31 g ai/ha
  Plant response rating, Morningglory: 100
[1]; 62 g ai/ha
  Plant response rating, Morningglory: 100
[1]; 125 g ai/ha
  Plant response rating, Morningglory: 100
[1]; 250 g ai/ha
  Plant response rating, Morningglory: 100
[2]; Postemergence, 31 g ai/ha
  Plant response rating, Kochia: 60
[2]; Postemergence, 125 g ai/ha
  Plant response rating, Kochia: 90
[2]; Postemergence, 250 g ai/ha
  Plant response rating, Kochia: 95
[2]; postemergence, 62 g ai/ha
  Plant response rating, Kochia: 90
[2]; postemergence, 500 g ai/ha
  Plant response rating, Kochia: 95
[3]
  Plant response rating, Smartweed: 100
[4]; Postemergence, 31 g ai/ha
  Plant response rating, Fall Panicum: 10
[4]; Postemergence, 125 g ai/ha
  Plant response rating, Fall Panicum: 30
[4]; Postemergence, 250 g ai/ha
  Plant response rating, Fall Panicum: 80
[4]; postemergence, 62 g ai/ha
  Plant response rating, Fall Panicum: 20
[4]; postemergence, 500 g ai/ha
  Plant response rating, Fall Panicum: 90
[5]; Postemergence, 31 g ai/ha
  Plant response rating, Arrowleaf Sida: 40
[5]; Postemergence, 125 g ai/ha
  Plant response rating, Arrowleaf Sida: 60
[5]; Postemergence, 250 g ai/ha
  Plant response rating, Arrowleaf Sida: 80
[5]; postemergence, 62 g ai/ha
  Plant response rating, Arrowleaf Sida: 50
[5]; postemergence, 500 g ai/ha
  Plant response rating, Arrowleaf Sida: 90
[6]; 16 g ai/ha
  Plant response rating, Quackgrass: 65
[6]; 31 g ai/ha
  Plant response rating, Quackgrass: 90
[6]; 62 g ai/ha
  Plant response rating, Quackgrass: 98
[6]; 125 g ai/ha
  Plant response rating, Quackgrass: 100
[6]; 250 g ai/ha
  Plant response rating, Quackgrass: 100
[7]; 16 g ai/ha
  Plant response rating, Nutsedge, Purple: 40
[7]; 31 g ai/ha
  Plant response rating, Nutsedge, Purple: 70
[7]; 62 g ai/ha
  Plant response rating, Nutsedge, Purple: 85
[7]; 125 g ai/ha
  Plant response rating, Nutsedge, Purple: 85
[7]; 250 g ai/ha
  Plant response rating, Nutsedge, Purple: 95
[8]; 16 g ai/ha
  Plant response rating, Guineagrass: 75
[8]; 31 g ai/ha
  Plant response rating, Guineagrass: 90
[8]; 62 g ai/ha
  Plant response rating, Guineagrass: 100
[8]; 125 g ai/ha
  Plant response rating, Guineagrass: 100
[8]; 250 g ai/ha
  Plant response rating, Guineagrass: 100
[9]; Postemergence, 31 g ai/ha
  Plant response rating, Italian Ryegrass: 0
[9]; Postemergence, 125 g ai/ha
  Plant response rating, Italian Ryegrass: 30
[9]; Postemergence, 250 g ai/ha
  Plant response rating, Italian Ryegrass: 65
[9]; postemergence, 62 g ai/ha
  Plant response rating, Italian Ryegrass: 15
[9]; postemergence, 500 g ai/ha
  Plant response rating, Italian Ryegrass: 90
